Assay results from PMC11822212, “High-throughput screening identifies Aurora kinase B as a critical therapeutic target for Merkel cell carcinoma” (Nature Communications, 2025).
Where a name gives a salt, the structure may show the parent alone. Read-outs that look alike come from different tables or passages of the source.

Assays:
[1] = system: MCC26 cells (VN-MCC); assay type: cell-based, human
Procedure: (§1) A non-targeting control (Silencer Select Negative Control No. 2 siRNA) and a positive control (AllStars Cell Death Control siRNA) were used as controls. Lipofectamine RNAiMax (Thermo Fisher Scientific, Grand Island, NY) was obtained as the transfection reagent. […] Three siRNAs per gene were arrayed in 384 well plates, one siRNA per well. […] Cell viability was measured by CellTiter-Glo assay following the manufacturer's instructions (G7572; Promega, Madison, WI, USA) 96 h after siRNA transfection. Assay plates were measured using BMG Pherastar plate reader Three different siRNAs (sequences: [NT], and [NT] targeting INCENP as well as negative non-targeting siRNA control were purchased from Thermo Fisher Scientific (Grand Island, NY).

[2] = system: MKL-2 cells (VP-MCC); assay type: cell-based, human
Procedure: as §1

[3] = system: WAGA cells (VP-MCC); assay: qHTS cell viability (CellTiter-Glo, 72 h; primary and follow-up small molecule screen); assay type: cell-based, human
[4] = system: MCC cell lines (WAGA, MKL-1, MKL-2, MCC13, MCC26, UISO); assay: qHTS cell viability, all six MCC cell lines as a group (mean AUC, MCC.avg); assay type: cell-based, human
[5] = system: HACAT cells; assay: qHTS cell viability (CellTiter-Glo, 72 h; primary screen), control cell line; assay type: cell-based, human
[6] = system: VP-MCC cell lines (WAGA, MKL-1, MKL-2); assay: qHTS cell viability, VP-MCC cell lines as a group (mean AUC, VP.MCC.avg); assay type: cell-based, human
[7] = system: HEK293T cells; assay: qHTS cell viability (CellTiter-Glo, 72 h; primary screen), control cell line; assay type: cell-based, human
[8] = system: MKL-1 cells (VP-MCC); assay: qHTS cell viability (CellTiter-Glo, 72 h; primary and follow-up small molecule screen); assay type: cell-based, human
[9] = system: VN-MCC cell lines (MCC13, MCC26, UISO); assay: qHTS cell viability, VN-MCC cell lines as a group (mean AUC, VN.MCC.avg); assay type: cell-based, human
[10] = system: MCC13 cells (VN-MCC); assay: qHTS cell viability (CellTiter-Glo, 72 h; primary and follow-up small molecule screen); assay type: cell-based, human
[11] = system: UISO cells (VN-MCC); assay: as above; assay type: cell-based, human
[12] = system: control cell lines (HACAT, HEK293T, CRL-7250, NIH-3T3); assay: qHTS cell viability, control cell lines as a group (mean AUC, Control.avg); assay type: cell-based
[13] = system: CRL-7250 cells; assay: qHTS cell viability (CellTiter-Glo, 72 h; primary screen), control cell line; assay type: cell-based
[14] = system: MKL-2 cells (VP-MCC); assay: qHTS cell viability (CellTiter-Glo, 72 h; primary and follow-up small molecule screen); assay type: cell-based, human
[15] = system: NIH-3T3 cells; assay: qHTS cell viability (CellTiter-Glo, 72 h; primary screen), control cell line; assay type: cell-based, mouse
[16] = system: MCC26 cells (VN-MCC); assay: qHTS cell viability (CellTiter-Glo, 72 h; primary and follow-up small molecule screen); assay type: cell-based, human
[17] = system: six MCC cell lines and four control cell lines; assay: qHTS cell viability, all 10 cell lines screened; assay type: cell-based
[18] = NPC library, 8-point DRC, area under dose-response curve
[19] = NPC library, 8-point DRC, control cell line
[20] = MIPE library, 11-point DRC, sheet S2E
[21] = MIPE library, mean AUC of six MCC cell lines, sheet S2E
[22] = MIPE library, 11-point DRC, control cell line, sheet S2E
[23] = MIPE library, Control AUC minus VP-MCC AUC (therapeutic window), sheet S2E
[24] = MIPE library, mean AUC of VP-MCC cell lines, sheet S2E
[25] = MIPE library, Control AUC minus VN-MCC AUC (therapeutic window), sheet S2E
[26] = MIPE library, mean AUC of VN-MCC cell lines, sheet S2E
[27] = MIPE library, mean AUC of control cell lines, sheet S2E
[28] = MIPE library, Control AUC minus MCC AUC (therapeutic window), sheet S2E

Molecule: GCUUGUACCUCAUAUCAGAtt (GCUUGUACCUCAUAUCAGATT; chemistry not given here)
- Percent viability [1]: 90.4%
- Percent viability [2]: 48.4%

Molecule: AGUCCUUUAUUAAGCGCAAtt (AGUCCUUUAUUAAGCGCAATT; chemistry not given here)
- Percent viability [1]: 103.7%
- Percent viability [2]: 80.2%

Molecule: AAAUGUUGAUCUCCUUUCC (chemistry not given here)
- Percent viability [1]: 97.2%
- Percent viability [2]: 84.7%

Molecule: UAUUGUUGGUUUCCUUUGC (chemistry not given here)
- Percent viability [1]: 96.2%
- Percent viability [2]: 92.8%

Molecule: GCAGGUUCCUUAUCUGUCAtt (GCAGGUUCCUUAUCUGUCATT; chemistry not given here)
- Percent viability [1]: 85.0%
- Percent viability [2]: 56.1%

Molecule: AGAUCAACCCAGAUAACUAtt (AGAUCAACCCAGAUAACUATT; chemistry not given here)
- Percent viability [1]: 73.1%
- Percent viability [2]: 48.5%

Molecule: CAAAGGAAACCAACAAUAAtt (CAAAGGAAACCAACAAUAATT; chemistry not given here)
- Percent viability [1]: 87.6%
- Percent viability [2]: 80.7%

Molecule: UGAAUGUAGAGAUGCGGUG (chemistry not given here)
- Percent viability [1]: 98.4%
- Percent viability [2]: 74.1%

Molecule: COc1ccc(CCN(C)CCCC(C#N)(c2cc(OC)c(OC)c(OC)c2)C(C)C)cc1OC (stereo not drawn) [Gallopamil hydrochloride]
- WAGA_AUC [3, 18]: 444.909
- MCC_Avg_AUC ([4]; NPC library, mean AUC of six MCC cell lines): 434.143
- HACAT_AUC [5, 19]: 488.048
- Control-VP-MCC ([6]; NPC library, Control AUC minus VP-MCC AUC (therapeutic window)): 35.3303
- VP-MCC_Avg_AUC ([6]; NPC library, mean AUC of VP-MCC cell lines): 443.879
- HEK293T_AUC [7, 19]: 464.897
- MKL1_AUC [8, 18]: 429.324
- Control-VN-MCC ([9]; NPC library, Control AUC minus VN-MCC AUC (therapeutic window)): 54.804
- VN-MCC_Avg_AUC ([9]; NPC library, mean AUC of VN-MCC cell lines): 424.406
- MCC13_AUC [10, 18]: 438.844
- UISO_AUC [11, 18]: 431.729
- Control_Avg_AUC ([12]; NPC library, mean AUC of control cell lines): 479.21
- CRL7250_AUC [13, 19]: 487.096
- MKL2_AUC [14, 18]: 457.405
- NIH3T3_AUC [15, 19]: 476.798
- MCC26_AUC [16, 18]: 402.644
- Control-MCC ([17]; NPC library, Control AUC minus MCC AUC (therapeutic window)): 45.0671

Molecule: C=C1C(=O)[C@]23[C@H](O)[C@H]1CC[C@H]2[C@@]12CO[C@]3(O)[C@@H](O)[C@@H]1C(C)(C)CC[C@@H]2O [Oridonin]
- WAGA_AUC [3, 20]: 351.193
- MCC_Avg_AUC [4, 21]: 389.297
- HACAT_AUC [5, 22]: 442.799
- Control-VP-MCC [6, 23]: 79.3252
- VP-MCC_Avg_AUC [6, 24]: 342.925
- HEK293T_AUC [7, 22]: 399.439
- MKL1_AUC [8, 20]: 359.043
- Control-VN-MCC [9, 25]: -13.4189
- VN-MCC_Avg_AUC [9, 26]: 435.669
- MCC13_AUC [10, 20]: 444.187
- UISO_AUC [11, 20]: 376.109
- Control_Avg_AUC [12, 27]: 422.25
- CRL7250_AUC [13, 22]: 432.105
- MKL2_AUC [14, 20]: 318.538
- NIH3T3_AUC [15, 22]: 414.657
- MCC26_AUC [16, 20]: 486.711
- Control-MCC [17, 28]: 32.9531

Molecule: COc1cc(/C=C/C(=O)CC(=O)/C=C/c2ccc(O)c(OC)c2)ccc1O [Curcumin]
- WAGA_AUC [3, 20]: 392.592
- MCC_Avg_AUC [4, 21]: 407.139
- HACAT_AUC [5, 22]: 459.473
- Control-VP-MCC [6, 23]: 62.3178
- VP-MCC_Avg_AUC [6, 24]: 372.565
- HEK293T_AUC [7, 22]: 422.758
- MKL1_AUC [8, 20]: 382.508
- Control-VN-MCC [9, 25]: -6.83
- VN-MCC_Avg_AUC [9, 26]: 441.713
- MCC13_AUC [10, 20]: 449.9
- UISO_AUC [11, 20]: 416.827
- Control_Avg_AUC [12, 27]: 434.883
- CRL7250_AUC [13, 22]: 433.368
- MKL2_AUC [14, 20]: 342.595
- NIH3T3_AUC [15, 22]: 423.932
- MCC26_AUC [16, 20]: 458.412
- Control-MCC [17, 28]: 27.7437

Molecule: CCOc1cc(N2CCC(O)CC2)ccc1Nc1ncc2c(n1)N(C)c1ccccc1C(=O)N2C [XMD8-92]
- WAGA_AUC [3]: 403.248
- MCC_Avg_AUC [4]: 427.79
- HACAT_AUC [5]: 464.723
- Control-VP-MCC [6]: 68.2382
- VP-MCC_Avg_AUC [6]: 390.829
- HEK293T_AUC [7]: 449.91
- MKL1_AUC [8]: 404.412
- Control-VN-MCC [9]: -5.684
- VN-MCC_Avg_AUC [9]: 464.751
- MCC13_AUC [10]: 476.46
- UISO_AUC [11]: 455.545
- Control_Avg_AUC [12]: 459.068
- CRL7250_AUC [13]: 459.588
- MKL2_AUC [14]: 364.829
- NIH3T3_AUC [15]: 462.049
- MCC26_AUC [16]: 462.249
- Control-MCC [17]: 31.2771
